Results as given in patent US11787839B2, “Targeting α2δ-1-bound glutamate receptors for treating diseases and disorders” (Board of Regents, The University of Texas System, priority 2017, dated 2023).

Key:
[1] = system: NMDARs of spinally projecting PVN neurons; assay: Recordings of spinally projecting PVN neurons in WT and Cacna2d1 KO mouse slices (Ang II); type: cell-based; conditions: Ang II 2 μmol/L
Text: Animals: 10- to 12-week-old male Sprague Dawley rats were used (Harlan Sprague Dawley, Indianapolis, Ind.) and both male and female mice (C57BL/6 genetic background) in the experiments. Two breeding pairs of Cacna2d1+/− mice were purchased from Medical Research Council (Harwell Didcot, Oxfordshire, UK), and Cacna2d1−/− (knockout) mice and Cacna2d1+/+ (wild-type) littermates were obtained by breeding the heterozygous mice. Because no sex differences were found in the effect of Ang II on synaptic NMDAR activity, electrophysiological data from male and female mice were pooled. All surgical preparation and experimental protocols were approved by the Animal Care and Use Committee of The University of Texas MD Anderson Cancer Center and conformed to the National Institutes of Health guidelines for the ethical use of animals. All efforts were made to minimize both the suffering and number of animals used.
Retrograde labeling of spinally projecting PVN neurons: Rats or mice were anesthetized with 2-3% isoflurane, and their spinal cords at the T1-T4 level were exposed through dorsal laminectomy. A fluorescent microsphere suspension (FluoSpheres, 0.04 μm; Molecular Probes, Invitrogen, Eugene, Oreg.) was pressure ejected (Nanoject II Microinjectors, Drummond Scientific Company, Broomall, Pa.) bilaterally into the IML region of the spinal cord in six separate 50-nl injections using a glass micropipette (tip diameter, 20-30 μm). The tracer injection was monitored through a surgical microscope (Li et al., 2002, 2003). The wound was closed with sutures after injection. Animals were returned to their cages for 4-7 days, which was sufficient time to permit the tracer to be retrogradely transported to the PVN. The animals were inspected daily for motor activity, signs of infection, and food and water intake.
Brain slice preparation: Four to seven days after fluorescent tracer injection, the animals were anesthetized with isoflurane and rapidly decapitated. The brain was quickly removed and placed in ice-cold artificial CSF (aCSF) saturated with 95% O2 and 5% CO2. A tissue block containing the hypothalamus was cut from the brain and glued onto the stage of a vibratome (Leica VT1000 S, Leica Biosystems Inc. Buffalo Grove, Ill.) as described previously (Li et al., 2003; Ye et al., 2011). […]
Electrophysiological recordings: The fluorescence-labeled neurons located in the medial one-third of the PVN area between the third ventricle and the fornix were selected for recording (Li et al., 2002, 2003). […]
The miniature excitatory postsynaptic currents (mEPSCs) were recorded in the presence of 1 μmol/L tetrodotoxin (TTX) and 20 μmol/L bicuculline at a holding potential of −60 mV (Li et al., 2003; Ye et al., 2011). […]

[2] = system: paclitaxel-treated rats; assay: Paclitaxel-induced pain hypersensitivity in rats; type: in vivo, rat; conditions: intrathecal 5 μg pregabalin, 1 μg peptides
Method: To induce neuropathic pain, rats and mice were intraperitoneally injected with paclitaxel (2 mg/kg; TEVA Pharmaceuticals, North Wales, Pa.) every 2 days for a total of 4 injections (days 1, 3, 5 and 7; total dose, 8 mg/kg), as described previously (Polomano et al., 2001). Animals in the control group were intraperitoneally injected with the vehicle (Cremophor EL/ethanol, 1:1) on the same 4 days. The presence of tactile allodynia was confirmed 10 to 12 days after drug treatment. Intrathecal catheters were implanted in some paclitaxel-treated rats during isoflurane-induced anesthesia. Briefly, a small puncture was made in the atlanto-occipital membrane of the cisterna magna and inserted a PE-10 catheter with the caudal tip reaching the lumbar enlargement of the spinal cord (Chen et al., 2014a; Xie et al., 2016).
Behavioral assessment of nociception: To measure tactile allodynia, mice or rats were individually placed on a mesh floor within a suspended chamber. […]
To quantify the mechanical nociceptive threshold in rats, the paw pressure (Randall-Selitto) test was conducted on the left hindpaw using an analgesiometer (Ugo Basile, Varese, Italy). […] When the rat withdrew its paw or vocalized, the pedal was immediately released, and the withdrawal threshold was recorded (Chen et al., 2014a). […]
To assess the thermal sensitivity of rats, the were placed individually on the glass surface of a thermal testing apparatus (IITC Life Sciences, Woodland Hills, Calif.). […] The paw withdrawal latency was recorded with a timer, and the hindpaw was tested twice to obtain an average time. […] After the threshold temperature was recorded, the mice were immediately removed from the plate. The heat threshold measurement was repeated 30 min later, and the average of the 2 recorded temperatures was considered as the heat threshold. The cold threshold was measured by cooling the plate from 30° C. at a rate of 6° C./min until nocifensive behaviors were observed. […]

Ang II: angiotensin II, obtained from Sigma (DRVYIHPF; Angiotensin-2; UniProt P01019 25-32, looked up)
amplitude of puff NMDA-elicited currents ([1]; Cacna2d1−/− mice): had no effect
frequency of mEPSCs ([1]; Cacna2d1−/− mice): had no effect
NMDAR-mediated frequency of mEPSCs ([1]; wild-type mice): markedly increased
amplitude of puff NMDA-elicited currents ([1]; wild-type mice): markedly increased

YGRKKRRQRRRVSGLNPSLWSIFGLQFILLWLVSGSRHYLW (a2d1 peptide) [α2δ-1Tat peptide, 30-amino-acid peptide mimicking the C-terminal domain of α2δ-1 fused to the cell-penetrating peptide Tat]
paclitaxel-induced pain hypersensitivity (tactile allodynia, mechanical and thermal hyperalgesia) [2]: markedly attenuated
